One block for each compound: values may come before it.
Key:
[1] = in vitro stability in CES1−/− mouse plasma; type: in vitro ADME; details: 10 μM
Method: All synthesized prodrugs were next screened for in vitro stability in carboxylesterase 1 knockout (CES1^−/−) mouse plasma, as well as CES1^−/− mouse brain and liver homogenates (Table 2-1). We have previously reported that CES1^−/− mouse model recapitulates human prodrug metabolism. Tenora et al., 2019.
(§1) Zimmermann et al., 2018. For the tissue homogenates, washed tissues were diluted 10-fold in 0.1 M potassium phosphate buffer and homogenized using a probe sonicator. To evaluate the stability of the intact prodrug over time, each of the crude homogenates and plasma were aliquoted to 1 mL and then spiked with a final assay concentration of 10 μM of each prodrug followed by incubation in an orbital shaker at 37° C. for 1 h (in triplicate). Sample from each incubation at predetermined time points (0 min, and 1 h) was quenched with three volumes of acetonitrile containing the internal standard (IS; losartan: 0.5 μm). Samples were vortex-mixed for 30 secs and centrifuged at 10,000×g for 10 min at 4° C. Disappearance of intact prodrugs from these samples were performed on a Dionex ultra-high-performance LC system coupled with Q Exactive Focus orbitrap mass spectrometer (Thermo Fisher Scientific Inc., Waltham MA). The separation of analytes was achieved using the Agilent Eclipse Plus column (100×2.1 mm i.d.; maintained at 35° C.) packed with a 1.8 μm C18 stationary phase. The mobile phase consisted of 0.1% formic acid in water and 0.1% formic acid in acetonitrile. Pumps were operated at a flow rate of 0.4 mL/min for 9 min using gradient elution. The mass spectrometer controlled by Xcalibur software 4.0.27.13 (Thermo Scientific) was operated with a heated electrospray ionization (HESI) ion source in positive ionization mode. Quantification of the prodrugs were performed in the full-scan mode (from m/z 50 to 1600) by comparing t=0 samples with t=60 min samples.

[2] = in vitro stability in CES1−/− mouse liver homogenates; type: in vitro ADME; details: CES1−/− mouse liver homogenate, 10 μM, 37° C.
Method: (§2) All synthesized prodrugs were next screened for in vitro stability in carboxylesterase 1 knockout (CES1^−/−) mouse plasma, as well as CES1^−/− mouse brain and liver homogenates (Table 2-1). We have previously reported that CES1^−/− mouse model recapitulates human prodrug metabolism.
as §1, with “For” for “Zimmermann et al., 2018. For”, “The separation of analytes was achieved using the Agilent Eclipse Plus column (100×2.1 mm i.d.; maintained at 35° C.) packed with a 1.8 μm C18 stationary phase.” left out

[3] = in vivo pharmacokinetic studies in mice (Example 1); design: species or system mouse; details: for AUC / MRT / half-life / Cmax: 10 mg/kg
Method: 1.2.1 In vitro metabolic stability assessment. In vitro metabolic stability assessment was performed using mouse plasma, and liver homogenates. For the liver homogenates, washed tissues were diluted 10-fold in 0.1 M potassium phosphate buffer and homogenized using a probe sonicator. To evaluate the stability of the intact prodrug over time, each of the tissue matrix were aliquoted to 1 mL and then spiked with 10 μM of corresponding prodrugs followed by incubation in an orbital shaker at 37° C. for 1 h (in triplicate). Sample from each incubation at predetermined time points (0 min, and 1 h) was quenched with three volumes of acetonitrile containing the internal standard (IS: losartan: 0.5 μm). Samples were vortex-mixed for 30 secs and centrifuged at 10,000 RPM for 10 min at 4° C. Disappearance of the intact compound was measured using liquid chromatography tandem mass spectrometry (LC-MS/MS). 1.2.2 In vivo pharmacokinetic studies in mice. Male CD-1 mice (n=3) were used to study the pharmacokinetic profiles of representive prodrug compounds. […] Blood and brain were collected after sacrificing the mice at predetermined time points. Plasma was harvested from blood by centrifugation at 3,000 RPM for 15 min and stored at −80° C. Brain tissues were harvested following blood collection and immediately snap frozen in liquid nitrogen and stored at −80° C. until LC-MS/MS analysis. […] Brain tissues were diluted 1:5 w/v with acetonitrile containing losartan (0.5 μm) and homogenized, followed by vortex-mixing and centrifugation at 10,000 RPM for 10 min at 4° C. A 50 μL aliquot of the supernatant was diluted with 50 μL of water and transferred to 250 μL polypropylene autosampler vials sealed with teflon caps. Then, 2 μL of the sample was injected into the LC-MS/MS system for analysis.

[4] = single time-point (2 h) oral pharmacokinetic screening in mice; type: in vivo, mouse; details: single time point PK, oral 10 mg/kg DPTIP equivalent
Method: (§3) All PK studies in mice were conducted according to protocols approved by the Animal Care and Use Committee at Johns Hopkins University. Male CD-1 mice between 25 and 30 g were obtained from Harlan and maintained on a 12 h light-dark cycle with ad libitum access to food and water. […] All of the formulations were freshly prepared prior to the dosing. The mice were sacrificed at specified time points (either 2 h or 0.25, 0.5, 1, 2, 4, 6, and 8 h) post drug administration. For the collection of plasma and brain tissue, animals were euthanized with CO2, and blood samples were collected in heparinized microtubes by cardiac puncture. Brains were dissected and immediately flash frozen (−80° C.) Blood samples were spun at 2000 g for 15 min, and plasma was removed and stored at −80° C. until LC-MS/MS analysis. Prior to extraction, frozen samples were thawed on ice.
Brain tissues were diluted 1:5 w/v with acetonitrile containing losartan (0.5 μm) and homogenized, followed by vortex-mixing and centrifugation at 10,000 g for 10 min at 4° C. […] Plasma concentrations (nmol/ml) as well as brain tissue concentrations (nmol/g) were determined and plots of mean plasma concentration versus time were constructed. Non-compartmental analysis modules in Phoenix WinNonlin version 7.0 (Certara USA, Inc., Princeton, NJ) were used to quantify exposures (AUC0-t).

[5] = time-dependent oral pharmacokinetics in mice; type: in vivo, mouse
Method: As described earlier, we identified P1 and P18 as the most promising candidates for time dependent PK.
as §3
Brain tissues were diluted 1:5 w/v with acetonitrile containing losartan (0.5 μm) and homogenized, followed by vortex-mixing and centrifugation at 10,000 g for 10 min at 4° C. A 50 μL aliquot of the supernatant were diluted with 50 uL of water and transferred to 250 μL polypropylene autosampler vials sealed with teflon caps. Then, 2 μL of the sample were injected into the LC/MS/MS system for analysis. Chromatographic analysis was performed using an Accela ultra-high-performance system consisting of an analytical pump and an autosampler coupled with a TSQ Vantage mass spectrometer. […] The mobile phase consisted of 0.1% formic acid in acetonitrile and 0.1% formic acid in water with gradient elution were used. […] Plasma concentrations (nmol/ml) as well as brain tissue concentrations (nmol/g) were determined and plots of mean plasma concentration versus time were constructed. Non-compartmental analysis modules in Phoenix WinNonlin version 7.0 (Certara USA, Inc., Princeton, NJ) were used to quantify exposures (AUC0-t).

[6] = in vitro metabolic stability in mouse plasma (Example 1); type: in vitro ADME; details: 10 μM, 37° C.
Method: 1.2.1 In vitro metabolic stability assessment. In vitro metabolic stability assessment was performed using mouse plasma, and liver homogenates. For the liver homogenates, washed tissues were diluted 10-fold in 0.1 M potassium phosphate buffer and homogenized using a probe sonicator. To evaluate the stability of the intact prodrug over time, each of the tissue matrix were aliquoted to 1 mL and then spiked with 10 μM of corresponding prodrugs followed by incubation in an orbital shaker at 37° C. for 1 h (in triplicate). Sample from each incubation at predetermined time points (0 min, and 1 h) was quenched with three volumes of acetonitrile containing the internal standard (IS: losartan: 0.5 μm). Samples were vortex-mixed for 30 secs and centrifuged at 10,000 RPM for 10 min at 4° C. Disappearance of the intact compound was measured using liquid chromatography tandem mass spectrometry (LC-MS/MS). 1.2.2 In vivo pharmacokinetic studies in mice. Male CD-1 mice (n=3) were used to study the pharmacokinetic profiles of representive prodrug compounds. […] Blood and brain were collected after sacrificing the mice at predetermined time points. Plasma was harvested from blood by centrifugation at 3,000 RPM for 15 min and stored at −80° C. Brain tissues were harvested following blood collection and immediately snap frozen in liquid nitrogen and stored at −80° C. until LC-MS/MS analysis. […]

[7] = in vitro stability in CES1−/− mouse brain homogenates; type: in vitro ADME; details: CES1−/− mouse brain homogenate, 10 μM, 37° C.
Method: as §2
as §1, with “For” for “Zimmermann et al., 2018. For”, “The separation of analytes was achieved using the Agilent Eclipse Plus column (100×2.1 mm i.d.; maintained at 35° C.) packed with a 1.8 μm C18 stationary phase.” left out

[8] = dog plasma pharmacokinetics; type: in vivo; details: IV 2 mg/kg
EV release = details: previously reported; in vitro (b234 also in vivo when delivered systemically); cited from earlier work
[9] = previously reported pharmacokinetics; cited from earlier work
[10] = male, CD-1, mouse, in vivo, po, intact prodrug, brain, mice, 10 mg/kg eqv
[11] = male, CD-1, mouse, in vivo, po, intact prodrug, plasma, mice, 10 mg/kg eqv

SMILES: COc1cc(-c2nc(-c3ccccc3)c(-c3cccs3)[nH]2)cc(OC)c1OC(=O)N1CCC(N2CCCCC2)CC1 [Compound P1, 2,6-Dimethoxy-4-(4-phenyl-5-(thiophen-2-yl)-1H-imidazol-2-yl)phenyl[1,4′-bipiperidine]-1′-carboxylate]
- Stability in mouse (% remaining at 1h) Mean + Std Error, Plasma ([1]; CES1−/− mouse plasma, 37° C.): 90 ± 2%
- Stability in mouse (% remaining at 1h) Mean + Std Error, Liver [2]: 85 ± 3%
- AUC [3, 10]: 0.477 µM·h
- MRT [3, 10]: 2.12 h
- half-life [3, 10]: 4.37 h
- Cmax ([3]; male, CD-1, mouse, in vivo, po, intact prodrug, brain, mice, 10 mg/kg eqv, read-out: Cmax): 106 ± 11.6 nM
- AUC [3, 11]: 0.805 µM·h
- MRT [3, 11]: 3.39 h
- half-life [3, 11]: 2.45 h
- Cmax ([3]; male, CD-1, mouse, in vivo, po, intact prodrug, plasma, mice, 10 mg/kg eqv, read-out: Cmax): 546 ± 25.8 nM
- Tmax [3, 11]: 1 h
- Kp ([3]; male, CD-1, mouse, in vivo, intact prodrug, mice, 10 mg/kg eqv, read-out: Brain:Plasma ratio): 0.6
- improvement of brain and plasma levels of DPTIP and/or its brain penetration index compared with DPTIP [4]: highest improvement
- plasma exposure of the intact compound (AUC0-t) ([5]; oral 10 mg/kg DPTIP equivalent): 0.8299 µM·h
- conversion of prodrug to DPTIP in vivo ([5]; oral 10 mg/kg DPTIP equivalent (P18: in the brain)): about 40%

SMILES: COc1cc(-c2nc(-c3ccccc3)c(-c3cccs3)[nH]2)cc(OC)c1OC(=O)C1=CN(C)C=CC1 [Compound P17, 2,6-Dimethoxy-4-(4-phenyl-5-(thiophen-2-yl)-1H-imidazol-2-yl)phenyl 1-methyl-1,4-dihydropyridine-3-carboxylate]
- intact prodrug remaining after 1 hour of incubation [6]: approximately 50%
- Stability in mouse (% remaining at 1h) Mean + Std Error, Plasma ([1]; CES1−/− mouse plasma, 37° C.): 52 ± 2%
- Stability in mouse (% remaining at 1h) Mean + Std Error, Liver [2]: 22 ± 1%

- Stability in mouse (% remaining at 1h) Mean + Std Error, Plasma ([1]; CES1−/− (carboxylesterase 1 knockout), mouse, plasma): 103 ± 2%
- Stability in mouse (% remaining at 1h) Mean + Std Error, Liver [2]: 98 ± 6%
- Stability in mouse (% remaining at 1h) Mean + Std Error, Brain [7]: 89 ± 4%
- Cmax ([3]; male, CD-1, mouse, plasma, po): 400 nM
- brain levels of DPTIP ([3]; mice, oral 10 mg/kg DPTIP equivalent): 50 nM
- AUC [8]: 7.47 µM·h
- Cmax [8]: 5500 nM
SMILES: COc1cc(-c2nc(-c3cccs3)c(-c3ccccc3)[nH]2)cc(OC)c1O [DPTIP, 2,6-dimethoxy-4-(5-phenyl-4-(thiophen-2-yl)-1H-imidazol-2-yl) phenol, reference compound]
- inhibition of EV release (EV release): dose-dependently inhibiting EV release in vitro and in vivo
- t1/2 (rapid clearance) of DPTIP [9]: < 0.5 h
